Experimental findings from PubChem BioAssay (NCI) are described below.

SMILES strings stand for the structures. Where “and” joins values, the source holds several entries; their conditions need not be identical. Equal values may be shown once.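 These data come from cells grown in 96-well plates and exposed to compound for 48 hours at five concentrations. Abbreviation: GI50, concentration required for 50% inhibition of growth. At the TGI there is no net growth.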

Common to all, as to assay: NCI anticancer screen, dose series, 48 h
Experiment [1] has as its system KM12 colon.
Experiment [2] has as its system LOX IMVI melanoma.
Experiment [3] has as its system MDA-MB-435.
The subject of experiment [4] is OVCAR-3 ovarian.
In experiment [5] the test system is OVCAR-8 ovarian.
The test system of experiment [6] is SNB-75 CNS.
Experiment [7] relates to SR leukemia.
In experiment [8] the test system is UACC-62 melanoma.

Turning to `COC(=O)/C=C1/SC(=Nc2cccc(Cl)c2)N(CCc2c[nH]c3ccc(O)cc23)C1=O`, the GI50 in experiment [1] is 1.53 µM; in experiment [2] it was 1.52 µM; in experiment [3], 1.68 µM; in experiment [4] it was 1.54 µM; in experiment [5] it was 2.32 µM; in experiment [6] it was 2.11 µM. Besides, the GI50 is 0.522 µM in experiment [7] and 1.68 µM in experiment [8]. In addition, the TGI in experiment [1] was 3.29 µM; in experiment [2] it was 2.98 µM; in experiment [3], 3.96 µM; in experiment [4] it was 3.23 µM; in experiment [5] it was 6.72 µM; in experiment [6] it was 5.1 µM. In addition, the TGI in experiment [7] turned out to be 7.13 µM; in experiment [8], 3.47 µM.

As to `COc1cc2nc(Nc3cccc(Cl)c3)nc(N)c2cc1OC`, the GI50 in experiment [1] is 4.07 µM; in experiment [2], 2.45 µM; in experiment [3], 2.81 µM; in experiment [4], 4.12 µM; in experiment [5], 6.29 µM; in experiment [6], 17.4 µM. For the same molecule, the GI50 in experiment [8] is 13 µM. The TGI in experiment [1] worked out at 15.7 µM; in experiment [2], 6.14 µM; in experiment [3], 9.71 µM; in experiment [4], 12.6 µM; in experiment [5] it was 22.6 µM; in experiment [6], 32.3 µM. Moreover, the TGI in experiment [8] worked out at 25.7 µM.

Regarding `Nc1ncc(-c2ccc3ncnc(Nc4cccc(Cl)c4)c3c2)cn1`, the GI50 in experiment [1] was 4.79 µM; in experiment [5], 2.87 µM; in experiment [6] it was 0.109 µM; in experiment [7], 0.268 µM; in experiment [8] it was 2.69 µM. Also, the TGI in experiment [1] is more than 100 µM; in experiment [5], more than 100 µM; in experiment [6], 0.695 µM; in experiment [8], more than 100 µM.

On to `CC(C)(C)OC(=O)C1C(=O)NC(=O)CC1CC(OCc1ccccc1)C(OCc1ccccc1)C(COCc1ccccc1)OCc1ccccc1` (stereo unspecified), for which the GI50 in experiment [1] was 39 µM and 5.26 µM; in experiment [2] it was 34.7 µM and 8.43 µM; in experiment [3] it was 45.1 µM and 9.81 µM; in experiment [5], 33.1 µM and 12 µM; in experiment [7], 30.1 µM and 6.47 µM. Moreover, the TGI in experiment [1] was > 100 µM and 27.2 µM; in experiment [2] it was > 100 µM and 21.4 µM; in experiment [3], > 100 µM and 66.1 µM; in experiment [4], more than 100 µM; in experiment [5], more than 100 µM; in experiment [6] it was more than 100 µM. Further, the TGI in experiment [7] is more than 100 µM.

`C[C@@H]1C[C@H](N)C[C@H](c2ccncc2NC(=O)c2ccc(F)c(-c3c(F)cccc3F)n2)C1`: the GI50 in experiment [1] is 12.3 µM and > 10 µM; in experiment [2], 10.6 µM and > 10 µM; in experiment [3], 10.4 µM and 9.19 µM; in experiment [4], 14.3 µM and > 10 µM; in experiment [5], 17.1 µM and > 10 µM; in experiment [6], 2.55 µM and 4.3 µM. For the same molecule, the GI50 in experiment [8] was 14.3 µM and > 10 µM. The TGI in experiment [1] is 27.7 µM and > 10 µM; in experiment [2], 23.3 µM and > 10 µM; in experiment [3], 22.1 µM and > 10 µM; in experiment [4] it was 28.2 µM and > 10 µM; in experiment [5] it was 32.8 µM and > 10 µM; in experiment [6] it was 18.2 µM and > 10 µM. Besides, the TGI in experiment [8] is 28.2 µM and > 10 µM.

As for `Cc1ccc(OCC2CO2)c(Br)c1` (stereo unspecified), the TGI in experiment [1] is more than 100 µM; in experiment [2], 30.4 µM; in experiment [3] it was 48.2 µM; in experiment [4] it was 68 µM; in experiment [5], 20.4 µM; in experiment [8], 37.7 µM.

With `CCOC(=O)c1[nH]c2cc(Cl)ccc2c1[C@@H](C(=O)NC(C)(C)C)N(CC)C(=O)CCCCC#Cc1cccc2c1CN(C1CCC(=O)NC1=O)C2=O` (stereo partly specified), the GI50 in experiment [1] was 0.901 µM; in experiment [2], 3.18 µM; in experiment [3] it was 2.34 µM; in experiment [4], 1.58 µM; in experiment [5], less than 0.01 µM; in experiment [6], less than 0.01 µM. The GI50 in experiment [8] is 1.56 µM. In addition, the TGI in experiment [1] was more than 100 µM; in experiment [2], more than 86.5 µM; in experiment [3], more than 31.7 µM; in experiment [4], more than 38.9 µM; in experiment [5] it was 35 µM; in experiment [6] it was 4.81 µM. The same molecule showed a TGI in experiment [8] of 5.51 µM.

As to `CSc1ccc(C2=NN(C(C)=O)C(c3ccc(-c4cc(Cl)c(Cl)cc4Cl)o3)C2)cc1` (stereo unspecified), the GI50 in experiment [1] was 16.9 µM; in experiment [2] it was 15.4 µM; in experiment [3], 15.5 µM; in experiment [4], 15.3 µM; in experiment [5], 16.9 µM; in experiment [6], 18.7 µM. In addition, the GI50 in experiment [8] is 10.2 µM. The TGI came out at 35.7 µM in experiment [1]; 28.7 µM in experiment [2]; 36.4 µM in experiment [3]; 37.8 µM in experiment [4]; 36.9 µM in experiment [5]; 43.2 µM in experiment [6]. The TGI in experiment [8] was 21.8 µM.

`Oc1ccccc1-c1nn(CNc2ccc(Cl)cc2)c(=S)o1`: the GI50 was 11.7 µM in experiment [1]; 3.21 µM in experiment [3]; 23.5 µM in experiment [4]; 30.2 µM in experiment [5]; 16 µM in experiment [7]; 0.633 µM in experiment [8]. For the same molecule, the TGI is more than 100 µM in experiment [1]; more than 100 µM in experiment [3]; more than 100 µM in experiment [4]; 89.9 µM in experiment [5]; 43.4 µM in experiment [7]; more than 100 µM in experiment [8].

Take `CC(=O)O.CN1[CH-]N(Cc2ccc(C#N)cc2)c2ccccc21.[Ag+]`: the GI50 in experiment [1] was more than 100 µM; in experiment [2] it was 15.6 µM; in experiment [3], 16.9 µM; in experiment [4], 16.6 µM; in experiment [5], 23.9 µM; in experiment [6] it was 20.6 µM. For the same molecule, in experiment [8], the GI50 was 16.4 µM. In addition, the TGI was more than 100 µM in experiment [1]; 36.2 µM in experiment [2]; 32 µM in experiment [3]; 30.4 µM in experiment [4]; 75.9 µM in experiment [5]; 68.9 µM in experiment [6]. This molecule registered a TGI in experiment [8] of 31 µM.

In the case of `O=C1c2ccccc2C(=O)N1CCc1ncc(-c2ccccc2)[nH]1`, the TGI in experiment [1], in experiment [4], in experiment [5], in experiment [6], in experiment [7] and in experiment [8] was more than 100 µM throughout.
